In ChEMBL document CHEMBL1201862, “PubChem BioAssay data set” (2004):
Active and inactive are the calls of the source.

How the values were obtained:
[1] = molecular target: T1, Beta-2 adrenergic receptor (Homo sapiens, UniProt P07550); test: Dose response for HTS for Beta-2AR agonists via FAP method from Powderset3.; format: functional
[2] = molecular target: T1, Beta-2 adrenergic receptor; test: beta2AR agonists driving receptor internalization, dose response, cell-based, FAP fluorogen, flow cytometry, cherry pick 1 (AID 588763); format: functional
[3] = molecular target: Fructose-bisphosphate aldolase (Mycobacterium tuberculosis, UniProt P9WQA3); test: Fluorescence-based biochemical high throughput dose response assay for inhibitors of the fructose-bisphosphate aldolase (FBA) of M. tuberculosis.; format: functional
Fructose-bisphosphate aldolase, sequence (P9WQA3 whole entry): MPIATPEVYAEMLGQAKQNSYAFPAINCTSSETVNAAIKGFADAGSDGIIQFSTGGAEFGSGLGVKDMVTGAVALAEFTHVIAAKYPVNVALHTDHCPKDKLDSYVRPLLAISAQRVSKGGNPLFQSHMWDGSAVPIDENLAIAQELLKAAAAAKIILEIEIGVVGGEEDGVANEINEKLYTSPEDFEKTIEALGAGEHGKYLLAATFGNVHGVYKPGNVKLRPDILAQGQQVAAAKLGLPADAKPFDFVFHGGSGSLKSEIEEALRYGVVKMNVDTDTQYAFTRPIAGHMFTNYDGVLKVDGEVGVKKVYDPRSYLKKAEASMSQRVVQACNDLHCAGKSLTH

[4] = inhibitors of intracellular T. cruzi replication, confirmation, NIH3T3 host cells, beta-gal luminescence (AID 2044); format: functional, cell-based;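 further: intracellular parasites grown in NIH/3T3 mouse fibroblasts as host cells; luminescent beta-galactosidase reporter signal from transgenic T. cruzi replicating inside host cells; inhibitors lower the luminescence signal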
[5] = cytotoxicity toward NIH3T3 fibroblasts, dose response, counter-screen, cell-based, ATP luminescence, mouse fibroblasts (AID 2010); format: functional;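 further: cells exposed to compound for about 90 hours before reading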
[6] = miR-122 activators in hepatoma reporter cells, dose response, cell-based, Huh7 psiCHECK-miR122, Renilla luciferase, cherry-picked (AID 651956); format: functional;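 further: huh7 hepatoma cells stably carrying a psiCHECK-2 miR-122 sensor plasmid; renilla luciferase signal reporting endogenous miR-122 activity after 48 h compound exposure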
[7] = inhibitors of LMP1-driven NF-kB reporter, dose response, cell-based, EBV LMP1, luciferase, dry powder, set 2 (AID 624361); format: functional
[8] = LMP1-driven NF-kB reporter inhibition, dose response, cell-based, luciferase reporter, luminescence, dry powder, set 2 (AID 624376); format: functional
Galanin receptor type 3 = Galanin receptor type 3 (Homo sapiens, UniProt O60755); test: Fluorescence-based cell-based primary high throughput dose response assay to identify antagonists of the Galanin Receptor 3 (GalR3).; format: functional
Galanin receptor type 3, sequence (O60755 whole entry): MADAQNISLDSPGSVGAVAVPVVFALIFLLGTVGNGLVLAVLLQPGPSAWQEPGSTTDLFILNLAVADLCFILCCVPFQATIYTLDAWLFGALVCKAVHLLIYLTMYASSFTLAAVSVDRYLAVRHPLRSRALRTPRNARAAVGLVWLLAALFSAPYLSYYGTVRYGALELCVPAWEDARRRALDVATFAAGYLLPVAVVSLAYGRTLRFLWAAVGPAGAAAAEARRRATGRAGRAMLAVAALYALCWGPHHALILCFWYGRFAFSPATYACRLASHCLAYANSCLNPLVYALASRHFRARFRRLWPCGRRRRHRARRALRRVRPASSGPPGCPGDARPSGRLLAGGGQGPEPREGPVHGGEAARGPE

cells = format: functional, cell-based; details: HEK-CNG
[9] = molecular target: ADP-ribosylation factor GTPase-activating protein 1 (Rattus norvegicus, UniProt Q62848); test: Fluorescence polarization-based biochemical high throughput dose response screening assay to identify inhibitors of ADP-ribosylation factor GTPase activating protein 1 (ARFGAP1).; format: functional
ADP-ribosylation factor GTPase-activating protein 1, sequence (Q62848 whole entry): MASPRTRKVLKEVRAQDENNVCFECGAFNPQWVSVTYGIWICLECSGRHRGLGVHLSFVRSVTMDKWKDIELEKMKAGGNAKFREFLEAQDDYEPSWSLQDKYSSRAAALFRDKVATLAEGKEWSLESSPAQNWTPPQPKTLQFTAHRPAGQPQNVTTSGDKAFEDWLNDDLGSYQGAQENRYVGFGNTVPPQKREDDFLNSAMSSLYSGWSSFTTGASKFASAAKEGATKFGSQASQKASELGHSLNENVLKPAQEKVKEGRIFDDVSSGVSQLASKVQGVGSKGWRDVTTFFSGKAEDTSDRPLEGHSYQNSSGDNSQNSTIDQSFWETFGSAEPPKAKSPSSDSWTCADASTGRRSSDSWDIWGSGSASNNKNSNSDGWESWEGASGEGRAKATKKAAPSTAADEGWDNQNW

T1 sequence (P07550 whole entry): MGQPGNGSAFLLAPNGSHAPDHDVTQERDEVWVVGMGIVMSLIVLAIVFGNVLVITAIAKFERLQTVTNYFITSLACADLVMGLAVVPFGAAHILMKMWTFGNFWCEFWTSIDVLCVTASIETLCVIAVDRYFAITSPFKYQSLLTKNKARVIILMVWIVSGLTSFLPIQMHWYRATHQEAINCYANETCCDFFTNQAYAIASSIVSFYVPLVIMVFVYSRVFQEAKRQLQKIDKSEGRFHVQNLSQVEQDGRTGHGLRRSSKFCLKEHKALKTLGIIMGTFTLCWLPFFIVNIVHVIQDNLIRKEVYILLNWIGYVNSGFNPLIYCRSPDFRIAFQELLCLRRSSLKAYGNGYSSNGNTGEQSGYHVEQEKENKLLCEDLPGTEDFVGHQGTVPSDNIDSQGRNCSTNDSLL

CC1(C)Cc2c(c(N3CCCC3)nc3sc4c(N5CCN(CCO)CC5)ncnc4c23)CO1
EC50 [1]: 1.71 µM (active)
EC50 [2]: 8.76 µM (active)

Nc1nc2n(n1)C(c1cccs1)CC(c1ccc(Br)cc1)N2 (stereo unspecified)
IC50 [3]: 4.61 µM (active)
EC50 [4]: 4.37 µM (active)
EC50 [5]: > 60 µM (not active)

COc1ccccc1C#Cc1cnc2c(c1)C(=O)N([C@H](C)CO)C[C@H](C)[C@@H](CN(C)C(=O)c1ccc3c(c1)OCO3)O2
AC50 [6]: 13.6 µM (active)
AbsAC35 [7]: 41.32 µM
AbsAC35 [8]: 52.21 µM

Cc1onc(-c2ccccc2Cl)c1C(=O)NNC(=O)c1cccc(F)c1
IC50 (Galanin receptor type 3): > 29.9 µM (inactive)
EC50 (cells): > 29.9 µM (inactive)

CCN1CCN(C(=O)Cn2ncc3c4cc(C)ccc4nc-3c2O)CC1
IC50 [9]: 82.7 µM (inactive)
